Source: article doi:10.1101/2024.09.17.613365, “Type-II kinase inhibitors that target Parkinson’s Disease-associated LRRK2” (bioRxiv, 2025)

Columns and labels:
[1] = target: T1, leucine-rich repeat kinase 2 (LRRK2) (Homo sapiens, UniProt Q5S007); assay: PhosphoSense kinase activity assay; DSF ΔTm […] K on LRRK2^KW; assay type: biochemical
T1 construct: LRRK2^RCKW (ROC, COR, Kinase, WD40)
T1 sequence (Q5S007 1327-2527 limits assumed): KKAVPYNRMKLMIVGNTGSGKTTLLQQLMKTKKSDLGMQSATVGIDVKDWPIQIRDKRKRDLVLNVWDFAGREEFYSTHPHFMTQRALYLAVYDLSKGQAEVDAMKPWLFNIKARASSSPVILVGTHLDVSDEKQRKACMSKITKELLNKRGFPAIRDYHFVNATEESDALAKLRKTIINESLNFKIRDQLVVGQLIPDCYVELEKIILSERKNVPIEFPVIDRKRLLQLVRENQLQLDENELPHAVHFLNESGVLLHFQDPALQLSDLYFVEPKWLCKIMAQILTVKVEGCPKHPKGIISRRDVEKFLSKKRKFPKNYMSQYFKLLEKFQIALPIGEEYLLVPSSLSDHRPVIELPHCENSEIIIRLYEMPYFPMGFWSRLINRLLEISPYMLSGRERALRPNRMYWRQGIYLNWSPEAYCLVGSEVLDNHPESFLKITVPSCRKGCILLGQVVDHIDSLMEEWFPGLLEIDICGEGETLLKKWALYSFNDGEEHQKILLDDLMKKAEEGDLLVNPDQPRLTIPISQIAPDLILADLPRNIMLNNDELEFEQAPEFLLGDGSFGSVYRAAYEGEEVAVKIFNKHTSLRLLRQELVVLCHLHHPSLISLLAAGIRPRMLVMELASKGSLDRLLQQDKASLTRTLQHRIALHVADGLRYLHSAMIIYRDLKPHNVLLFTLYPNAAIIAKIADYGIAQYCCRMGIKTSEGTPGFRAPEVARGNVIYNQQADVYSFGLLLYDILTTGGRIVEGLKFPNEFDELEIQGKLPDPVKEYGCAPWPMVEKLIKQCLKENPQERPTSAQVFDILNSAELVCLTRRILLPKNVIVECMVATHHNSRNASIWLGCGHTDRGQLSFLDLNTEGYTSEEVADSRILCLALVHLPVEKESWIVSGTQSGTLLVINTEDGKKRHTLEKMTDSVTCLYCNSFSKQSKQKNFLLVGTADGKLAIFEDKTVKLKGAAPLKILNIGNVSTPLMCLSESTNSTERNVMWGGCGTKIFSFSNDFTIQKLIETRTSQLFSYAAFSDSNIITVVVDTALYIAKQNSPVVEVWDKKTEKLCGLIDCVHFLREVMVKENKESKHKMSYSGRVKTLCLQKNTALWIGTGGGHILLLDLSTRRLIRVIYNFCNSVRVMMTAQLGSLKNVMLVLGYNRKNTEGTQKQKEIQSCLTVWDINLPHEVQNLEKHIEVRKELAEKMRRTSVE

[2] = target: T1, leucine-rich repeat kinase 2 (LRRK2); assay: biochemical; parameters: PhosphoSense (AssayQuant) kinase activity assay with purified LRRK2 RCKW
Text: (§1) Next, we evaluated the potency and selectivity of these new compounds. We performed on-target screening by measuring the thermostability increase of LRRK2^KW in the presence of the new compounds using DSF (Supporting Information Table S2). We also determined the in vitro IC50 (median inhibitory concentration) values for each of the new compounds by purifying LRRK2^RCKW and measuring its kinase activity in the presence of our new inhibitors using the PhosphoSense® activity assay from AssayQuant (Supporting Information Table S2). Finally, we estimated the kinome selectivity of each compound by measuring the thermostability increase of approximately 100 representative kinases in the presence of the compounds via DSF (Supporting Information Table S2).

LRRK2^KW [3] = target: T2, LRRK2^KW (Homo sapiens, UniProt Q5S007); parameters: Differential scanning fluorometry, thermal stabilization of LRRK2 KW by compound; details: binder
T2 construct: Kinase and WD40 domain construct (KW)
Text: Next, we evaluated the potency and selectivity of these new compounds. We performed on-target screening by measuring the thermostability increase of LRRK2^KW in the presence of the new compounds using DSF (Supporting Information Table S2). We also determined the in vitro IC50 (median inhibitory concentration) values for each of the new compounds by purifying LRRK2^RCKW and measuring its kinase activity in the presence of our new inhibitors using the PhosphoSense® activity assay from AssayQuant (Supporting Information Table S2). Finally, we estimated the kinome selectivity of each compound by measuring the thermostability increase of approximately 100 representative kinases in the presence of the compounds via DSF (Supporting Information Table S2). […] Additionally, we screened a library of published type-II inhibitors to identify those that bind to LRRK2^KW (a Kinase and WD40 domain construct of LRRK2) with high affinity.

LRRK2^KW [4] = target: T2, LRRK2^KW; parameters: DSF thermal shift of purified LRRK2 KW construct with compound; details: binder
Text: Additionally, we screened a library of published type-II inhibitors to identify those that bind to LRRK2^KW (a Kinase and WD40 domain construct of LRRK2) with high affinity. […] Next, we evaluated the potency and selectivity of these new compounds. We performed on-target screening by measuring the thermostability increase of LRRK2^KW in the presence of the new compounds using DSF (Supporting Information Table S2). We also determined the in vitro IC50 (median inhibitory concentration) values for each of the new compounds by purifying LRRK2^RCKW and measuring its kinase activity in the presence of our new inhibitors using the PhosphoSense® activity assay from AssayQuant (Supporting Information Table S2). Finally, we estimated the kinome selectivity of each compound by measuring the thermostability increase of approximately 100 representative kinases in the presence of the compounds via DSF (Supporting Information Table S2).

[5] = target: T1, leucine-rich repeat kinase 2 (LRRK2); assay: biochemical; parameters: PhosphoSense kinase activity assay, purified LRRK2 RCKW
Text: as §1

[6] = target: T1, leucine-rich repeat kinase 2 (LRRK2); assay: PhosphoSense kinase activity assay; DSF ΔTm […] K on LRRK2^KW; assay type: biochemical; remark: listed apart in the source

T2 sequence (Q5S007 whole entry, the tested form may be a part): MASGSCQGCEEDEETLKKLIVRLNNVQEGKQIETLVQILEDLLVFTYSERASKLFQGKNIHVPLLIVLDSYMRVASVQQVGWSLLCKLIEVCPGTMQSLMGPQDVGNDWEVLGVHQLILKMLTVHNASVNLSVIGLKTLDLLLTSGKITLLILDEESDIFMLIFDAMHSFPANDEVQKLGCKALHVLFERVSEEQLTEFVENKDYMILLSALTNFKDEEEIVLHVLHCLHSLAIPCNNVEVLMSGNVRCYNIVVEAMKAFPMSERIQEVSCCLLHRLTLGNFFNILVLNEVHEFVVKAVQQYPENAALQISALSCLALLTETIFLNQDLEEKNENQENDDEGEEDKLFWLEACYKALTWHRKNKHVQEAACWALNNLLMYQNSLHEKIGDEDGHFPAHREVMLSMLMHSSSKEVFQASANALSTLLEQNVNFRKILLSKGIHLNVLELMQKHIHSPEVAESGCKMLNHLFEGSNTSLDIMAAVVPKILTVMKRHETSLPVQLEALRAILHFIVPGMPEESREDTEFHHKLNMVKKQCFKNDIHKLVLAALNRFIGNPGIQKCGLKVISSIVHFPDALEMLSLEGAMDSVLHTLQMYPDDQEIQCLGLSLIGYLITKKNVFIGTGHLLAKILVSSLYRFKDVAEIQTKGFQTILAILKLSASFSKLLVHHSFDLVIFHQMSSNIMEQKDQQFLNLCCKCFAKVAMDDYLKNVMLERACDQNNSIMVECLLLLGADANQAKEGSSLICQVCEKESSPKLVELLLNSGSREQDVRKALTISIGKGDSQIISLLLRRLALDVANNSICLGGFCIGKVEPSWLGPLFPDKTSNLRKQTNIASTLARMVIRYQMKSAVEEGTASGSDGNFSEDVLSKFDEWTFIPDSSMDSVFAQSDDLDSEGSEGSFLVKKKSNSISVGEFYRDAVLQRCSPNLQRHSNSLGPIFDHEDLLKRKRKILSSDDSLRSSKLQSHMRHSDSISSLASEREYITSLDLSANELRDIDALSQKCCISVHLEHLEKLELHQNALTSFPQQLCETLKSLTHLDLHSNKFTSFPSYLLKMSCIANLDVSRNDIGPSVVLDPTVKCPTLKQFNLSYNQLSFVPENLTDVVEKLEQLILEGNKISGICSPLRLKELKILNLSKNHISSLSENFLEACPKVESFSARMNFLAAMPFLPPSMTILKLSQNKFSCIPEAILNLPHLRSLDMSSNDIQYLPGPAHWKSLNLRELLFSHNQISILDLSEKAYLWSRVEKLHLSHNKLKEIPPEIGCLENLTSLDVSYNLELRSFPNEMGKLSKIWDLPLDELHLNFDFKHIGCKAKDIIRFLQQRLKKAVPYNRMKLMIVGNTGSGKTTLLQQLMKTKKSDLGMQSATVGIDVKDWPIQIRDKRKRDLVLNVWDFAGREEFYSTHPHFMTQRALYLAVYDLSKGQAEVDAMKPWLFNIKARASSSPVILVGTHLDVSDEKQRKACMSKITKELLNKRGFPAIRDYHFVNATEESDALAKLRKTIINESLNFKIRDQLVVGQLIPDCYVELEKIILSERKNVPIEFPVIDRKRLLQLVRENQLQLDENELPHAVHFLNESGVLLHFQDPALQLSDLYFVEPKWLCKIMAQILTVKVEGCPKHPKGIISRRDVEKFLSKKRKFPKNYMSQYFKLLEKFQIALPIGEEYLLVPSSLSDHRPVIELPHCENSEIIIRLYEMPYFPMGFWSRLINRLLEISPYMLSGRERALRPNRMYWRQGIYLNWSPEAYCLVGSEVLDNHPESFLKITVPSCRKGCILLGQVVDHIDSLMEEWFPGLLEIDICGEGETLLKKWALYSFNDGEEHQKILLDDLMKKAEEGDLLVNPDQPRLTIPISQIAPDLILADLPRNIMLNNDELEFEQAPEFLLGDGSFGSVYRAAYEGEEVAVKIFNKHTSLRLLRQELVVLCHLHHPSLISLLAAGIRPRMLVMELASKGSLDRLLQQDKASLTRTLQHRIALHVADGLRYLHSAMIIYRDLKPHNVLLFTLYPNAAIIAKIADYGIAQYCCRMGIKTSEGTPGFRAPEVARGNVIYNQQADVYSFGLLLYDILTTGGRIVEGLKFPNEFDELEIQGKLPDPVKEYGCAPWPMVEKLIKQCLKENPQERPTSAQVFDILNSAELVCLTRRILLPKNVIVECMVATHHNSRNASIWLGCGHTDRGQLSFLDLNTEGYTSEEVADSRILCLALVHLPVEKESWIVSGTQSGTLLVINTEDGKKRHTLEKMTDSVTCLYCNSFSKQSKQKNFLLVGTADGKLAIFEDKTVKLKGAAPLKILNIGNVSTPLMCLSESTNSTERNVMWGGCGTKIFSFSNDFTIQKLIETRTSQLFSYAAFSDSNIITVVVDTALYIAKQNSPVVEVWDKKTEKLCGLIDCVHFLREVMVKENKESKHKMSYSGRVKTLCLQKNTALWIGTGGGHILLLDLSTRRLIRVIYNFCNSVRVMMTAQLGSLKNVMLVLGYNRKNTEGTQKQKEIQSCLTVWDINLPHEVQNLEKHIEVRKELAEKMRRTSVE

NC(=O)C1(C(=O)N(c2cccc(-c3c[nH]c4ncnc(N5CCOCC5)c34)c2)c2ccc(F)c(Br)c2F)CC1 [compound 26, RN222]
IC50 [1]: 134 ± 5 nM

NC(=O)C1(C(=O)N(c2cccc(-c3c[nH]c4ncnc(N5CCOCC5)c34)c2)c2cccc3c2CCC3)CC1 [compound 11, N-(2,3-dihydro-1H-inden-4-yl)-N-(3-(4-morpholino-7H-pyrrolo[2,3-d]pyrimidin-5-yl)phenyl)cyclopropane-1,1-dicarboxamide]
IC50 [2]: 989 ± 32 nM
ΔTm [K] (LRRK2^KW [3]): 9.2 K

CN1CCc2cc(N(C(=O)C3(C(N)=O)CC3)c3cccc(-c4c[nH]c5ncnc(N6CCOCC6)c45)c3)ccc2C1 [compound 10, N-(2-methyl-1,2,3,4-tetrahydroisoquinolin-6-yl)-N-(3-(4-morpholino-7H-pyrrolo[2,3-d]pyrimidin-5-yl)phenyl)cyclopropane-1,1-dicarboxamide]
IC50 [2]: 3180 ± 134 nM
ΔTm [K] (LRRK2^KW [3]): 4.3 K

CC(C)(C)c1cc(NC(=O)Nc2ccc3cn[nH]c3c2)n(-c2ccc3ncccc3c2)n1 [compound 53, 1-(3-(tert-butyl)-1-(quinolin-6-yl)-1H-pyrazol-5-yl)-3-(1H-indazol-6-yl)urea]
∆Tm [K] (LRRK2^KW [4]): 2.0 K
IC50 ([5]; read-out: IC50 [nM]): > 15000 nM

Cc1cc(N(C(=O)C2(C(N)=O)CC2)c2cccc(-c3c[nH]c4ncnc(N5CCOCC5)c34)c2)ccc1F [compound 20, 20]
IC50 [6]: 110 ± 11 nM

Cc1ccc(-n2nc(C(C)(C)C)cc2NC(=O)Nc2ccc3cn[nH]c3c2)cc1 [compound 54, 1-(3-(tert-butyl)-1-(p-tolyl)-1H-pyrazol-5-yl)-3-(1H-indazol-6-yl)urea]
∆Tm [K] (LRRK2^KW [4]): 2.0 K
IC50 ([5]; read-out: IC50 [nM]): > 15000 nM

Cc1ccc(C(=O)Nc2ccc(CN3CCN(C)CC3)c(C(F)(F)F)c2)cc1C#Cc1ccc2cn[nH]c2c1 [compound 52, 3-((1H-indazol-6-yl)ethynyl)-4-methyl-N-(4-((4-methylpiperazin-1-yl)methyl)-3-(trifluoromethyl)phenyl)benzamide]
∆Tm [K] (LRRK2^KW [4]): 10.0 K
IC50 ([5]; read-out: IC50): 897 ± 120 nM
